From patent US6117840A, “CS-1 peptidomimetics, compositions and methods of using the same” (Cytel Corporation, priority 1997, dated 2000)

The compounds below were run against T1, VLA-4 (Homo sapiens, UniProt P05556+P13612). Conditions: not given.
T1 construct: host or cells: Jurkat (human T lymphoblastic line)
T1 sequence (P13612 34-1032): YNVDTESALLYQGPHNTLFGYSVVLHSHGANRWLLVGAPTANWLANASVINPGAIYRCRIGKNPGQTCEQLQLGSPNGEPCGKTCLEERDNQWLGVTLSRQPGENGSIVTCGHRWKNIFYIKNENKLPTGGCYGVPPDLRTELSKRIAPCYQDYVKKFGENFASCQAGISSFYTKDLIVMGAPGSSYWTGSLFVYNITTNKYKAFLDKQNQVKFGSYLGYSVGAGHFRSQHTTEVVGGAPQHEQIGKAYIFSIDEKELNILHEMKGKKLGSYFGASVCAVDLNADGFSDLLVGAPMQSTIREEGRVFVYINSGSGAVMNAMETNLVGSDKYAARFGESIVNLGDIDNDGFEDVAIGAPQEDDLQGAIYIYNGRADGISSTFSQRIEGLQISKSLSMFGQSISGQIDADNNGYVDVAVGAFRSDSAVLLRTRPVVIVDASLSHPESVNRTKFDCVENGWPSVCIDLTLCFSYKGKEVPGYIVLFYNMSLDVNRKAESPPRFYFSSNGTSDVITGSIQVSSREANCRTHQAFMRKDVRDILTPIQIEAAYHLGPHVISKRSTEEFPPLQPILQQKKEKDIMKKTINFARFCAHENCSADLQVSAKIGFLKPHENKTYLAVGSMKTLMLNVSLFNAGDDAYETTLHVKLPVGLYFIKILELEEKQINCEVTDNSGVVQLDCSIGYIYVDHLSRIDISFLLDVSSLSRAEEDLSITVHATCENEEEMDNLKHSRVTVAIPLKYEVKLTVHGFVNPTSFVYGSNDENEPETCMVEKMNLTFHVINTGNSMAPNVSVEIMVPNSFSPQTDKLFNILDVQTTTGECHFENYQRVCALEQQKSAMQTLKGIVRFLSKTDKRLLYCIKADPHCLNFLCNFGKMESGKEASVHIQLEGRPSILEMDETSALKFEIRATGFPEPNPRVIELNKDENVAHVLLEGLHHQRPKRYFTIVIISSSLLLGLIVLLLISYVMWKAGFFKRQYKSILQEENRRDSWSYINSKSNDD
T1 sequence (P05556 21-798): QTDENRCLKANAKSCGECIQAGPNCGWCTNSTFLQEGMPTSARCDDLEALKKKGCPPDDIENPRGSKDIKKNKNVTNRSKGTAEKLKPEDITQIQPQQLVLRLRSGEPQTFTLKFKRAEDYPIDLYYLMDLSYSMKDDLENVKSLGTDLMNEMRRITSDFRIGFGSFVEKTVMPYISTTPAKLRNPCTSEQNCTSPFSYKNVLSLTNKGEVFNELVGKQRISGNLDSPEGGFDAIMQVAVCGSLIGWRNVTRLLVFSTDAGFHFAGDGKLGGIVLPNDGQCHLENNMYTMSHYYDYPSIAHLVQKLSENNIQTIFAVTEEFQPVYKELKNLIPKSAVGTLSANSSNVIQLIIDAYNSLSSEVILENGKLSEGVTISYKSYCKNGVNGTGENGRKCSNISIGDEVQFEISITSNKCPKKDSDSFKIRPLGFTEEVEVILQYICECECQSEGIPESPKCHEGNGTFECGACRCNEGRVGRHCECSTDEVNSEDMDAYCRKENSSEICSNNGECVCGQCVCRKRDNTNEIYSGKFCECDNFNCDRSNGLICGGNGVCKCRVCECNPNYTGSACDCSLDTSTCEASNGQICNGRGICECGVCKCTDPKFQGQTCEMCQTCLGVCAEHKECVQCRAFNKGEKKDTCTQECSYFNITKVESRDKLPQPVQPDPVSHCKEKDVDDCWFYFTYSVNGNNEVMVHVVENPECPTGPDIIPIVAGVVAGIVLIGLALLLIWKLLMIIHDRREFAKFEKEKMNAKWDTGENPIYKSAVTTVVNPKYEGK
Type: cell-based
Protocol: Binding inhibition is measured here as a concentration of peptide that inhibits one-half the binding between a standard number of Jurkat cells and a standard amount of CS-1 peptide bound to the surface of a microtiter plate well. Those concentrations are conveniently expressed as IC50 values, smaller numbers indicating a lower concentration required to inhibit 50 percent binding and therefore greater potency. Further specifics of this assay are provided hereinafter.
Jurkat cells (ATCC TIB 152), a human T lymphoblastic line, labeled with ^51 chromium were used to assay in vitro binding inhibition provided by various peptides discussed herein.
The plates were prepared as follows: The 25-mer CS1 peptide (SEQ ID NO:1) dissolved at 0.5-1 μg/ml in a buffer of 0.1M NaHCO3 at pH 9.5 tha also contained 10 μg/ml of bovine serum albumin (BSA) or a conjugate o the CS1 peptide linked to ovalbumin (CS1-OVA) dissolved at 1-2.5 μg/ml in the same buffer was used as the substrate. Each well of the microtiter plates was coated with 50 μl of substrate or buffer alone for controls The wells were permitted to dry out completely and were then rinsed twice with PBS at pH 7.4. Nonspecific binding sites of each well were then blocked using 200 μl per well of RPMI/1 percent BSA for two hours at room temperature. Both solid phaseaffixed substrates provided similar results.
Jurkat cells (3-5×10^6 cells) were placed into a 15 ml Falcon.TM roundbottom tube with a cap. The tube was centrifuged, and the extra medium was then removed.
Two hundred microliters of a ^51 Cr labeling solution were added to th centrifuged cells and maintained in contact with the cells for 90-120 minutes in a warm room. This procedure typically provides about 50,000-100,000 cpm/well with about 80-100 percent cell viability. Longer contact times provide a greater amount of labeling but lower cell viability.
The labeled cells are washed with (i) complete medium, (ii) 1 mM EDTA/PBS and then (iii) RPMI/1 percent BSA free of serum components. The cells are centrifuged after each washing. The cells are finally resuspended in serumfree RPMI/1 percent BSA at a concentration of 1×10^6 viabl cells/ml, which provides a concentration that is diluted by onehalf in th assay.
Inhibitor peptides are prepared as stock solutions at 20 mg/ml in DMSO in 1.5 ml cryogenic screwcap vials, and were stored at -70° C. Using Flow™ roundbottom or Vbottom microtiter plates, the inhibitor peptides were prepared at twice the assay concentration in RPMI/1 percent BSA at 6 μl/well.
Four initial dilutions were typically used.
The ^51 Crlabeled cells (1×10^6 cells at 60 μl/well) were then admixed with the diluted peptide solutions. The admixtures were maintained at room temperature (about 22° C.) for 30 minutes.
One hundred microliters of each inhibitor peptide/cell admixture were transferred to the substratecoated wells. This was done in triplicate for each dilution. The resulting plates were incubated for 30 minutes at 37° C. and then washed gently three times with RPMI/1 percent BSA at 200 μl/well. Binding was observed microscopically, particularly after the second wash.
The bound cells were then lysed by the addition of a 0.5 percent solution of sodium dodecylsulfate in water at 100 μl/well. The resulting solutions were then processed for counting and calculation of IC50 values following usual procedures. Appropriate positive and negative controls were used with each plate so that the results of separate assays could be normalized and compared.
For `CC(C)C[C@H](NC(=O)Cc1ccccc1)C(=O)N[C@@H](CC(=O)O)C(=O)N[C@@H](Cc1ccccc1)C(=O)N1CCC[C@H]1C(=O)NCCN(CCN(CCN(CCNC(=O)[C@@H]1CCCN1C(=O)[C@H](Cc1ccccc1)NC(=O)[C@H](CC(=O)O)NC(=O)[C@H](CC(C)C)NC(=O)Cc1ccccc1)C(=O)[C@@H]1CCCN1C(=O)[C@H](Cc1ccccc1)NC(=O)[C@H](CC(=O)O)NC(=O)[C@H](CC(C)C)NC(=O)Cc1ccccc1)C(=O)[C@@H]1CCCN1C(=O)[C@H](Cc1ccccc1)NC(=O)[C@H](CC(=O)O)NC(=O)[C@H](CC(C)C)NC(=O)Cc1ccccc1)C(=O)[C@@H]1CCCN1C(=O)[C@H](Cc1ccccc1)NC(=O)[C@H](CC(=O)O)NC(=O)[C@H](CC(C)C)NC(=O)Cc1ccccc1`, the “VLA-4 binding inhibition, times better than the standard 10-mer peptide of SEQ ID NO:3” value was “about 210 times”.

Same assay, conditions: relative to standard peptide SEQ ID NO:3 (=1), normalized IC50; about one-tenth or less of SEQ ID NO:3 assigned zero
`CC(C)C[C@H](NC(=O)Cc1ccccc1)C(=O)N[C@@H](CC(=O)O)C(=O)N[C@@H](Cc1ccccc1)C(=O)N1CCCC1CO` (some centres unmarked) was tested, and the “RELATIVE POTENCY (inhibition of VLA-4 binding CS-1)” value was 184.
With `CC(C)C[C@H](NC(=O)Cc1ccccc1)C(=O)N[C@@H](CC(=O)O)C(=O)N[C@@H](Cc1ccccc1)C(=O)N1CC(O)C(O)C1` (some centres unmarked) the “RELATIVE POTENCY (inhibition of VLA-4 binding CS-1)” value was 194.
`CC(C)C[C@H](NC(=O)Cc1ccccc1)C(=O)N[C@@H](CC(=O)O)C(=O)N[C@@H](Cc1ccccc1)C(=O)N1CCN(CCOCCO)CC1` was tested, and the “RELATIVE POTENCY (inhibition of VLA-4 binding CS-1)” value was 505.
In the case of `CC(C)C[C@H](NC(=O)Cc1ccccc1)C(=O)N[C@@H](CC(=O)O)C(=O)N[C@@H](Cc1ccccc1)C(=O)N1CCN(CC(N)=O)CC1`, the “RELATIVE POTENCY (inhibition of VLA-4 binding CS-1)” value is reported as 319.
With `CC(C)C[C@H](NC(=O)Cc1ccccc1)C(=O)N[C@@H](CC(=O)O)C(=O)N[C@@H](Cc1ccccc1)C(=O)N1CCN(CC(=O)O)CC1` the “RELATIVE POTENCY (inhibition of VLA-4 binding CS-1)” value was 2579.
For `CC(C)C[C@H](NC(=O)Cc1ccccc1)C(=O)N[C@@H](CC(=O)O)C(=O)N[C@@H](Cc1ccccc1)C(=O)N1CCS(=O)(=O)CC1`, the “RELATIVE POTENCY (inhibition of VLA-4 binding CS-1)” value was 1060.
`CC(C)C[C@H](NC(=O)Cc1ccccc1)C(=O)N[C@@H](CC(=O)O)C(=O)N[C@@H](Cc1ccccc1)C(=O)N1CCC(O)CC1` was tested, and the “RELATIVE POTENCY (inhibition of VLA-4 binding CS-1)” value was 603.
With `CC(C)C[C@H](NC(=O)Cc1ccccc1)C(=O)N[C@@H](CC(=O)O)C(=O)N[C@@H](Cc1ccccc1)C(=O)N1CC[N+](C)(C)CC1` the “RELATIVE POTENCY (inhibition of VLA-4 binding CS-1)” value was 313.
`CC(C)C[C@H](NC(=O)Cc1ccccc1)C(=O)N[C@@H](CC(=O)O)C(=O)N[C@@H](Cc1ccccc1)C(=O)N1CCSCC1` was tested, and the “RELATIVE POTENCY (inhibition of VLA-4 binding CS-1)” value was 493.
`CC(C)C[C@H](NC(=O)Cc1ccccc1)C(=O)N[C@@H](CC(=O)O)C(=O)N[C@H]1Cc2ccccc2[C@H]2CCCCN2C1=O` was tested, and the “RELATIVE POTENCY (inhibition of VLA-4 binding CS-1)” value was 50.
With `CC(C)C[C@H](NC(=O)Cc1ccccc1)C(=O)N[C@@H](CC(=O)O)C(=O)N[C@@H]1CCCCNC1=O` the “RELATIVE POTENCY (inhibition of VLA-4 binding CS-1)” value was 17.
For `CC(C)C[C@H](NC(=O)Cc1ccccc1)C(=O)N[C@@H](CC(=O)O)C(=O)NC1Cc2ccccc2N(CCN2CCOCC2)C1=O` (some centres unmarked), the “RELATIVE POTENCY (inhibition of VLA-4 binding CS-1)” value was 20.
With `CC(C)C[C@H](NC(=O)Cc1ccccc1)C(=O)N[C@@H](CC(=O)O)C(=O)NC1CCCCN(CC(N)=O)C1=O` (some centres unmarked) the “RELATIVE POTENCY (inhibition of VLA-4 binding CS-1)” value was 97.
`CC(C)C[C@H](NC(=O)Cc1ccccc1)C(=O)N[C@@H](CC(=O)O)C(=O)NC1Cc2ccccc2N(CC(C)C)C1=O` (some centres unmarked) was tested, and the “RELATIVE POTENCY (inhibition of VLA-4 binding CS-1)” value was 6.
`CC(C)C[C@H](NC(=O)Cc1ccccc1)C(=O)N[C@@H](CC(=O)O)C(=O)NCCN1CCOCC1` was tested, and the “RELATIVE POTENCY (inhibition of VLA-4 binding CS-1)” value was 13.
`CC(C)C[C@H](NC(=O)Cc1ccccc1)C(=O)N[C@@H](CC(=O)O)C(=O)NC1Cc2ccccc2NC1=O` (some centres unmarked) was tested, and the “RELATIVE POTENCY (inhibition of VLA-4 binding CS-1)” value was 31.
For `CC(C)C[C@H](NC(=O)Cc1ccccc1)C(=O)N[C@@H](CC(=O)O)C(=O)NC1Cc2ccccc2N(CC(N)=O)C1=O` (some centres unmarked), the “RELATIVE POTENCY (inhibition of VLA-4 binding CS-1)” value was 45.
In the case of `CC(C)C[C@H](NC(=O)Cc1ccccc1)C(=O)N[C@@H](CC(=O)O)C(=O)NC1CCCCNC1=O` (some centres unmarked), the “RELATIVE POTENCY (inhibition of VLA-4 binding CS-1)” value is reported as 27.
With `CC(C)C[C@H](NC(=O)Cc1ccccc1)C(=O)N[C@@H](CC(=O)O)C(=O)NC1CCN(C2CCCCC2)C1=O` (some centres unmarked) the “RELATIVE POTENCY (inhibition of VLA-4 binding CS-1)” value was 7.
